Drawing on PubChem BioAssay (NCI), this text covers TGI and GI50 for 15 compounds.

Assay in all cases: DTP human tumour cell line panel, 48 h
The test system of assay [1] is A549 NSCLC.
The subject of assay [2] is ACHN renal.
For assay [3], the system named is EKVX NSCLC.
Assay [4] deals with HL-60(TB) leukemia.
The subject of assay [5] is OVCAR-4 ovarian.
The test system of assay [6] is SW-620 colon.
In assay [7] the test system is NCI-H23 lung.
In assay [8] the test system is RXF 393 renal.
Assay [9] relates to MDA-MB-435.

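Compound exposure: 48 hours, 5 concentrations, 96-well plates. At the GI50, growth is halved. TGI marks complete inhibition of growth.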 Bounds are passed on as bounds.

What is called TGI is the concentration at which net growth stops. Usually GI50 stands for the concentration giving 50% growth inhibition.

For the compound `O=C(Nc1ccc(Cl)cc1C(=O)O)c1ccc([N+](=O)[O-])cc1`, the TGI was over 100 µM in assay [1]; 49.6 µM in [2]; 82.8 µM in assay [3]; 50.8 µM in assay [4]; 47.1 µM in assay [5]; over 100 µM in assay [6].

`CC(C)COC1Sc2ccccc2S1`: the TGI came out at 46.6 µM in assay [1]; 30 µM in [2]; 38.1 µM in assay [3]; 53.4 µM in assay [7]; 53.4 µM in assay [5]; 34.6 µM in assay [8]. In addition, the TGI in [6] was 88.3 µM.

With `CCOC(=N)CC(=O)Nc1ccccc1`, the total growth inhibition concentration (TGI) is over 46.4 µM in [1]; over 46.4 µM in assay [2]; over 100 µM in assay [3]; over 100 µM in [4]; over 46.4 µM in assay [7]; over 46.4 µM in [5]. The values for the TGI in assay [8] and in assay [6] were over 46.4 µM and over 67.6 µM, respectively.

For `N#C/C(=C1\OC(=N)C(c2ccccc2)C1=O)c1ccccc1` (centres undefined), the TGI is over 100 µM in [1]; 31.8 µM in assay [2]; over 73.2 µM in assay [3]; 54.4 µM in assay [4]; over 100 µM in [5]; 31.8 µM in assay [8]. In assay [6], this compound registered a TGI of 59.1 µM.

`C[N+](C)(C)c1cc[c]([Sn]([c]2ccc([N+](C)(C)C)cc2)([c]2ccc([N+](C)(C)C)cc2)[c]2ccc([N+](C)(C)C)cc2)cc1`: the GI50 in assay [1], in [2], in assay [3], in assay [4], in assay [7] and in [5] was over 100 µM throughout. The GI50 in assay [8] and in assay [6] was over 100 µM throughout. Moreover, the total growth inhibition concentration (TGI) in assay [1], in [2], in assay [3], in [4], in [7] and in assay [5] was over 100 µM throughout. Moreover, the TGI in [8] and in assay [6] was over 100 µM in each case.

Regarding `CC1C=CC(C(N)C(=O)O)O1` (centres undefined), the TGI in assay [1], in [2], in assay [3], in assay [4], in [7] and in assay [5] was over 100 µM each time. Further, the TGI in assay [8] and in assay [6] was over 100 µM throughout.

Consider `CC1=CP(=O)(c2ccccc2)C=C(C)C1=C(Cl)Cl` (centres undefined), for which the TGI in assay [1] was over 100 µM; in [4] it was 5.61 µM; in assay [7] it was 34.9 µM; in assay [5], 26 µM; in assay [8] it was 33.5 µM; in [6], 16.6 µM.

`O=C(CC1C(=O)Nc2ccccc2S1(=O)=O)Nc1ccc(Cl)cc1` (centres undefined): the total growth inhibition concentration (TGI) was over 100 µM in [1]; 71.9 µM in assay [2]; 42.1 µM in assay [4]; over 100 µM in assay [7]; 77.2 µM in assay [5]; 38.5 µM in [8]. The same compound showed a TGI in [6] of over 100 µM.

As for `O=C(N/C(=C\c1ccccc1O)c1nc2ccccc2[nH]1)c1ccccc1`, the TGI in assay [1], in assay [2], in assay [3], in assay [7], in assay [5] and in assay [8] was over 100 µM in each case. The compound also yielded a TGI in assay [6] of over 100 µM.

On to `CCCCNC(=S)OCCC(C)CCCC(C)C` (centres undefined), for which the TGI in assay [1], in assay [2], in assay [3], in assay [4], in assay [7] and in assay [5] was over 100 µM each time. Moreover, the TGI in assay [8] and in assay [6] was over 100 µM throughout.

In the case of `COc1ccc(O)cc1C(O)c1ccccc1` (centres undefined), the TGI in assay [1], in [2], in assay [3], in [4], in [7] and in assay [5] was over 100 µM throughout. For the same compound, the TGI in assay [8] and in assay [6] was over 100 µM throughout.

For the compound `Nc1nc2c(-c3ccc([N+](=O)[O-])cc3)nnn2c2ccccc12`, the TGI in assay [1], in assay [2], in assay [3], in assay [4], in [7] and in [5] was over 100 µM throughout. In assay [6], this compound returned a TGI of over 100 µM.

With `O=C(N=c1nc(NC(=O)c2ccccc2)ss1)c1ccccc1`, the TGI in [1] was 49.7 µM; in assay [2] it was 31.6 µM; in assay [3], over 100 µM; in assay [4] it was 40.6 µM; in assay [7], 92.5 µM; in assay [5], over 100 µM. Moreover, the TGI in [8] and in [6] was over 100 µM in each case.

For the compound `CC(=O)NNc1nc(C)c(C(=O)NNC(=O)C(=O)Nc2c([N+](=O)[O-])ccc(C)c2C)s1`, the TGI in assay [1], in [2], in [3], in assay [4], in assay [7] and in [5] was over 100 µM in each case. In [6], this compound showed a TGI of over 100 µM.

`O=C(Nc1ccccc1)OC1OC(COC(=O)c2ccccc2)C(OC(=O)c2ccccc2)C1OS(=O)(=O)c1ccc([N+](=O)[O-])cc1` (centres undefined): the total growth inhibition concentration (TGI) in assay [1], in [2], in assay [3], in [4], in assay [9] and in assay [7] was over 100 µM in each case. In addition, the TGI in [5], in [8] and in [6] was over 100 µM each time.
